“Also recorded” adds a separate entry of the source. Where two headings read alike, the source gives them in different places. Each block holds one molecule with its values, some of them ahead of it.
Experiments:
[1] = comparison value, no reference given; cited from earlier work
Nephelometric solubility = assay type: physicochemical; settings: maximal solubility in DMEM + 10 % FCS
Method: Solubility of Scaff10 derivatives was assessed nephelometrically. Scaff10 derivatives are moderately to poorly soluble in aqueous solutions due to their large number of aromatic rings having lipophilic character. Details about NMR, LC/MS and HPLC characterization steps are given in the Supplemental Information.
Suppl. Tab. 3: Overview of all 55 Scaff10 derivatives.Structures labeld with 1 were commercially obtained. MW = molecular weight. logP = calculated partition coefficient (using […]
Solubility was assessed nephelometrically in DMEM + 10 % FCS + Scaff10 derivative with either 0.3 or 2 % DMSO
final concentration; values in µM indicate maximal solubility of the compound under the respective condition. Yield in % indicates total yield of the last step of chemical synthesis
for each of Scaff10 derivatives. n.d. = not determined. n.i. = not indicated.
Scaff10 MW Number of exp. 2 % DMSO 0.3 % DMSO Scaff10 Yield
Structure log P Disruption of the PPI IC50 [µM]
derivative [g/mol] in dupl. [µM] [µM] class [%]

647-RhoA = target: T1, 647-RhoA (Homo sapiens, UniProt P61586); assay: Microscale thermophoresis (MST) with 647-RhoA; assay type: binding; settings: for Kd: mean ± SEM
T1 construct: made in house
T1 sequence (P61586 whole entry): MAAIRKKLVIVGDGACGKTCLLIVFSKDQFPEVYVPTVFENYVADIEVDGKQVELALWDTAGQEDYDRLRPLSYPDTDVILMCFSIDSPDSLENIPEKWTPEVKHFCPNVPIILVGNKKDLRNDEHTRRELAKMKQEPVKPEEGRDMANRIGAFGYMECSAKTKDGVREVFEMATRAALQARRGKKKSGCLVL
Method: (§1) The final concentration of GFP-AKAP-Lbc/DHPH was set to 150 nM, 95% LED and 80% MST laser power. […] The samples were incubated in the dark for 1 h incubation at room temperature, and measured with 30 sec laser-on and 5 sec laser-off time at a Monolith NT.115 device (NanoTemper). Measured fluorescence (F) was normalised (Fhot/Fcold = Fsteady state/Finitial state, Fig 3). Values of thermophoresis + T-jump were related to average of each measurement row (16 capillaries). Final values are given as ‰.
(§2) Fig 4 The Scaff10 derivative Scaff10-8 binds to RhoA but not to the DHPH domain of AKAP-Lbc. (A-D) Microscale thermophoresis (MST) takes advantage of the phenomenon of directed movement of particles in a temperature gradient. Binding events lead to changes in the hydration shell of biomolecules and a relative change of movement of the molecular complex along a temperature gradient. Using such changes, binding affinities can be determined. MST assays were carried out with (A) the recombinant DHPH domain of AKAP-Lbc fused with GFP and RhoA as a ligand and (B) fluorescent 647-RhoA and the His-tagged AKAP-Lbc/DHPH domain as a ligand. (C) MST assays for the analysis of the binding of Scaff10-8 to 647-RhoA. Upper panels: The concentration of fluorescent 647-RhoA remained constant and Scaff10-8 (left) and Scaff10-7 as a negative control (right) were titrated in increasing concentrations. Lower panels: Values of fluorescence corresponding to upper panels. (D) MST assay showing no binding of Scaff10-8 or Scaff10-7 to GFP-DHPH. Upper panels: The concentration of fluorescent GFP-AKAP-Lbc/DHPH remained constant and Scaff10-8 (left) and Scaff10-7 (right) were titrated in increasing concentrations. Lower panels: Values of fluorescence corresponding to upper panels. […] F norm = normalized fluorescence (fluorescence steady state/fluorescence initial state) indicated in ‰. n = 3–5. Mean ± SEM. […] The ligand protein named in each panel heading is used as the substance label, and it is uncertain whether these count as substances.

[2] = target: T2, interaction of AKAP-Lbc/DHPH and RhoA (Homo sapiens, UniProt P61586); assay: Homogeneous time-resolved fluorescence (HTRF) assay; assay type: binding; settings: HTRF; for inhibitory effect on the AKAP-Lbc/DHPH-RhoA interaction: result in words; for IC50: Table 1, '-' = no IC50, inactive (n.d. is used separately in S3 Table)
T2 construct: His6-AKAP-Lbc/DHPH (aa 1972–2342 of human AKAP-Lbc; NP_006729.4); made in house
T2 sequence (P61586 whole entry, the tested form may be a part): as the sequence (P61586 whole entry) above
Source text: Fig 2 The small molecule Scaff10-8 inhibits the interaction of the DH domain of AKAP-Lbc and RhoA. (A). Principle of homogenous time-resolved fluorescence (HTRF) assay. Recombinant His-AKAP-Lbc/DHPH and GST-RhoA were generated. The tags are recognized by specific antibodies coupled to fluorescent dyes. When the two proteins interact, donor and acceptor dyes of the antibodies are in close proximity, energy transfer occurs upon excitation at 320 nm and a FRET signal is detected (665 nm). If a compound disrupts the interaction of the DHPH domain and RhoA, the proximity of the fluorescent moieties remains insufficient for a FRET signal to occur. […] As expected, excess untagged Rho decreases the binding between GST-RhoA and His-AKAP-Lbc/DHPH in a dose-dependent manner (lower left panel). […] (C) The influence of Scaff10-8 on the interaction of RhoA with the recombinant DH domain of AKAP-Lbc in the absence of the PH domain was determined by Alpha screen. […] The IC50 value is indicated.
The assay was essentially carried out as described. Scaff10 derivatives were added to His6-AKAP-Lbc/DHPH protein (250 nM final concentration) in HTRF buffer (PBS; 4 mM MgCl2; 0.05% Tween 20) in 384 well plates (Proxiplate-384 Plus, white, #6008289; Perkin Elmer LAS, Rodgau, Germany). Concentrations of Scaff10 derivatives ranged between 1.56–200 μM (2% DMSO final concentration); HTRF buffer with 2% DMSO served as a control. GST-RhoA (30 nM final concentration) in HTRF buffer and anti-GST antibody coupled to terbium (donor) and anti-His6-tag antibody coupled to XL665 (acceptor) were added to all wells (final antibody concentration: 2 μg/ml). After 1 h incubation at room temperature in the dark, FRET signals were recorded at 620 and 665 nm using a Genios Pro plate reader (Tecan Austria GmbH, Grödig, AT) and the ratios of […] to 620 nm were calculated. Wells containing no compound were set to 100% interaction of AKAP-Lbc/DHPH with RhoA, wells containing GST-RhoA only (without His6-AKAP-Lbc/DHPH) were set to 0% interaction. To exclude any interference of the tags and/or antibodies with Scaff10 derivatives, a His6-GST fusion protein replaced the two tagged proteins in a control assay. Wells containing His6-GST fusion protein were set to 100% interaction of His6-GST, wells containing no fusion protein were set to 0% interaction.

GFP-AKAP-Lbc/DHPH = target: T3, GFP-AKAP-Lbc/DHPH (Homo sapiens, UniProt Q12802); assay: Microscale thermophoresis (MST) with GFP-AKAP-Lbc/DHPH; assay type: binding; settings: read-out: KD for binding to GFP-AKAP-Lbc/DHPH
T3 construct: His6-AKAP-Lbc/DHPH (aa 1972–2342 of human AKAP-Lbc; NP_006729.4); made in house; host or cells: HEK293-EBNA cells (transient transfection, pTT5)
T3 sequence (Q12802 1972-2342 isoform Q12802-2): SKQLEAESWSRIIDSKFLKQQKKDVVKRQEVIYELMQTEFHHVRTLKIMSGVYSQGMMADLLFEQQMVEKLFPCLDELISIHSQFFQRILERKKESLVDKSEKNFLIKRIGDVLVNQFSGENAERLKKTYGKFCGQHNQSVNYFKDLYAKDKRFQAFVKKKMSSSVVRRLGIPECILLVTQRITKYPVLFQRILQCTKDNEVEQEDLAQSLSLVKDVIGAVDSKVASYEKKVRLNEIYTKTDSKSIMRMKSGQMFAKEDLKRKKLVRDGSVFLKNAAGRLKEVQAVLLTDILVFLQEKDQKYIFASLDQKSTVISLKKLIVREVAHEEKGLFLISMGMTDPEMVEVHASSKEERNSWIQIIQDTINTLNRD
Method: as §1, §2

[3] = target: T4, interaction of the DH domain of AKAP-Lbc and RhoA (Homo sapiens, UniProt P61586); assay: Alpha screen assay; assay type: binding; settings: result in words
T4 construct: The proteins used were N-terminally His6-tagged AKAP-Lbc-DH domain
T4 sequence (P61586 whole entry, the tested form may be a part): as the sequence (P61586 whole entry) above
Method: Assays were performed according to the manufacturer’s protocol (PerkinElmer) with minor modifications. All reagents were diluted in buffer containing 25 mM Hepes, pH 7.4, 100 mM NaCl, 0.1% bovine serum albumin, 0.05% CHAPS and 50 μM GDP and allowed to equilibrate to room temperature before addition to plates. […] The proteins used were N-terminally His6-tagged AKAP-Lbc-DH domain and C-terminally biotinylated RhoA. […] 8 μL of assay buffer containing donor and acceptor beads at 1:400 dilution was then added, the plate was incubated in the dark for 60 min and then read on a PheraStar FS plate reader (BMG Labtech, Germany) using an AlphaScreen^TM 680 excitation/570 emission filter set.
11.6 μL of a solution containing 100 nM RhoA and 200 nM AKAP13 in assay buffer was added and incubated with the compounds for 30 min at RT in foil-sealed plates. 8 μL of assay buffer containing donor and acceptor beads at 1:400 dilution was added. The plate was incubated in the dark for 60 min and then read on a PheraStar FS plate reader.

[4] = tested on: AQP2 localization in MCD4 cells; assay: Immunofluorescence microscopy of AQP2 in MCD4 cells; assay type: cell-based, mouse; settings: 30 μM
[5] = DMEM + 10 % FCS, plasma or biological fluid, kinetic from dmso stock, 0.3 % DMSO final, read-out: Solubility 0.3 % DMSO
[6] = DMEM + 10 % FCS, plasma or biological fluid, kinetic from dmso stock, 2 % DMSO final, read-out: Solubility 2 % DMSO

Molecule: CC(=O)NO [acetohydroxamic acid]
pKa [1]: 8.7

Molecule: O=C(O)/C=C/c1ccccc1 [cinnamic acid]
pKa [1]: 4.44

Molecule: Cc1c(CCC(=O)O)c(=O)oc2cc3occ(-c4ccc(Oc5ccccc5)cc4)c3cc12 [Scaff10-38]
solubility (Nephelometric solubility; [5]): > 150 µM
solubility (Nephelometric solubility; [6]): 100 µM
Kd (647-RhoA; KD for binding to 647-RhoA, n = 3–5): 19.5 ± 4.1 µM
IC50 ([2]; IC50 ± SEM): 36.7 ± 3.3 µM

B1: His-AKAP-Lbc/DHPH: recombinant His-tagged DHPH domain of AKAP-Lbc (protein)
chain: T3 sequence (Q12802 1972-2342 isoform Q12802-2)
modifications: left off: His6, end not stated, kept
Kd (647-RhoA; n = 3–5, read-out: KD for binding to 647-RhoA): 14 ± 4 µM

Now from value to molecule, other results behind:

solubility (Nephelometric solubility; 0.3 % DMSO final, read-out: Solubility 0.3 % DMSO): 75 µM
solubility (Nephelometric solubility; 2 % DMSO final, read-out: Solubility 2 % DMSO): 30 µM
binding to 647-RhoA (647-RhoA; result in words): did not bind
inhibitory effect on the AKAP-Lbc/DHPH-RhoA interaction [2]: complete loss of the inhibitory effect
IC50 ([2]; read-out: IC50 ± SEM): > 200 µM
Molecule: COC(=O)CCc1c(C)c2cc3c(-c4ccc(OC)cc4)coc3cc2oc1=O [Scaff10-48]

Kd (GFP-AKAP-Lbc/DHPH): 42 ± 5 µM
Molecule: untagged RhoA: recombinant untagged RhoA protein used as competitor or ligand

inhibitory effect in Alpha screen [3]: without inhibitory effects
solubility (Nephelometric solubility; [5]): 40 µM
solubility (Nephelometric solubility; [6]): 30 µM
IC50 ([2]; read-out: IC50 ± SEM): > 200 µM
Molecule: CCOC(=O)CCc1c(C)c2ccc(OCc3ccc(OC)cc3)cc2oc1=O [Scaff10-59]
localization of AQP2 in MCD4 cells [4]: did not affect the location of AQP2
inhibitory effect on the AKAP-Lbc/DHPH-RhoA interaction [2]: did not; also recorded: without inhibitory effects

— article PMC5786306, “An AKAP-Lbc-RhoA interaction inhibitor promotes the translocation of aquaporin-2 to the plasma membrane of renal collecting duct principal cells” (PLoS ONE, 2018)
